Laboratory results taken from patent US10722530B2, “Methods of diagnosing and treating cancer” (CASE WESTERN RESERVE UNIVERSITY, priority 2016, dated 2020).
Where two headings read alike, the source gives them in different places.

Tests used:
[1] = system: γH2AX foci in HEC1A cells; assay: γH2AX foci immunofluorescence staining; format: cell-based, human; conditions: 10 μM Q-VD-OPh with 50 nM 5-FdU, HEC1A shSCR or shUDG
Method: (§1) Cells cultured on glass coverslips were treated with 5-FdU in the presence or absence of 10 μM caspase inhibitor Q-VD-OPH (BioVision Inc). Cells were fixed in 3.7% formaldehyde for 10 minutes, blocked with PBS containing 10% FBS and 0.1% Triton X-100 for 20 minutes, washed with PBS three times, and incubated with primary anti-γH2AX antibody (Millipore, dilution: 1:150) in PBS containing 0.1% Triton X-100 at 4° C. overnight. The cells were then washed with PBS three times, incubated with secondary antibodies (Alexa Fluor 594, Life Technologies; dilution: 1:400) in PBS containing 0.1% Triton X-100 for 1 h, and washed with PBS three times. The slides were mounted with antifade solution with DAPI (Cell Signaling) and visualized on a Leica laser microscope.

γH2AX foci in DLD1 cells = assay: γH2AX foci immunofluorescence staining; format: cell-based, human; conditions: 10 μM Q-VD-OPh with 50 nM 5-FdU, DLD1 shSCR or shUDG
Method: as §1

[2] = system: cleaved PARP in DLD1 cells; assay: Western blot of cleaved PARP; format: cell-based, human; conditions: 10 μM Q-VD-OPh, 50 nM 5-FdU, DLD1 shSCR and shUDG
Method: (§2) Western blots were performed as described in Yan et al. (Clin Cancer Res. (2007) 13:1532-39). Antibodies used were as follows: Anti-UDG (FL-313) (Santa Cruz Biotechnology), anti-Cleaved PARP (Asp214)(19F4) (Cell Signaling), and anti-α-Tubulin (Calbiochem).

[3] = system: cleaved PARP in HEC1A cells; assay: Western blot of cleaved PARP; format: cell-based, human; conditions: 10 μM Q-VD-OPh, 50 nM 5-FdU, HEC1A shSCR and shUDG
Method: as §2

DLD1 colon cancer cells = conditions: for effect of UDG depletion on drug sensitivity: DLD1 shUDG vs shSCR
Method: UDG knockdown was performed via shRNA transduction with validated clone from Sigma-Aldrich. […] A non-targeted scramble control shRNA clone (Sigma-Aldrich) was also used. Transfection of shRNA clones was performed according to manufacturer's specifications from Lipofectamine 2000 (Invitrogen). Lentiviral particles were produced via HEK293 cells, and targeted cells were infected and selected with puromycin. The stable UDG knockdown levels were verified for q-PCR and western blot analysis.
Colonies were stained with methylene blue, and only colonies containing ≥50 cells were counted. The percentage of survival was determined relative to untreated control averaged over 3 independent experiments.

[4] = system: HEC1A endometrial cancer cells; assay: Colony survival assay, shSCR and shUDG cells; format: cell-based, human; conditions: HEC1A shUDG vs shSCR
Method: UDG knockdown was performed via shRNA transduction with validated clone from Sigma-Aldrich. The ID of UDG shRNA clone is NM_003362.2-656s21c1. A non-targeted scramble control shRNA clone (Sigma-Aldrich) was also used. Transfection of shRNA clones was performed according to manufacturer's specifications from Lipofectamine 2000 (Invitrogen). Lentiviral particles were produced via HEK293 cells, and targeted cells were infected and selected with puromycin. The stable UDG knockdown levels were verified for q-PCR and western blot analysis.
DLD1 (200 cells/well) or HEC1A (300 cells/well) cells were plated in 6-well culture dishes and allowed to adhere for 16 h. Cells were treated with drug for 24 h, gently washed twice with 1×PBS, and incubated with fresh media for at least 10 days to allow individual colonies to form. Colonies were stained with methylene blue, and only colonies containing ≥50 cells were counted. The percentage of survival was determined relative to untreated control averaged over 3 independent experiments.

Excerpt for HCT116 p53 KO cells: (§3) p53 or UDG knockdown was achieved via shRNA transduction. Lentiviral vectors LV-THM-shp53 (which also expresses a GFP reporter) or LV-Bleo-shp53 to perform p53 KD in WT HCT116 cells were obtained from Case Western Reserve University, Cleveland, Ohio Lentiviral vector targeting GFP (sh-GFP) was used as control. UDG shRNA vectors (shUDG: NM_003362.2-656s21c1, shUDG-2: NM_003362.2-758s21c1, and shUDG-3: NM_003362.2-893s21c1) were purchased from Sigma, and a scramble targeting shRNA vector (Sigma) was used as paired control. The lentiviral production and infection were performed as previously described. Cells stably infected with LV-THM-p53 were isolated by cell sorting on the basis of their GFP expression.
(§4) Cancer cells (200-300 cells/well) were seeded in 6-well culture dishes and allowed to adhere overnight. For 5-FdU, cells were treated for 24 h, then gently washed with PBS, and incubated with fresh media for at least 10 days to allow individual colonies to form. […] After 10-18 days, the plates were stained with methylene blue. Colonies containing ≥50 cells were counted. The percentage of survival was determined relative to untreated control averaged over 3 independent experiments.
Excerpt for HCT116 p53 WT cells: as §3, §4

## CC(C)[C@H](NC(=O)c1ccc2ccccc2n1)C(=O)N[C@@H](CC(=O)O)C(=O)COc1c(F)cccc1F [Q-VD-OPh]
[1]
  γH2AX foci, Q-VD-OPh treated vs non-treated: essentially the same
γH2AX foci in DLD1 cells
  γH2AX foci, Q-VD-OPh treated vs non-treated: essentially the same
[2]
  cleaved PARP induced by 5-FdU in presence of Q-VD-OPh: almost completely blocked
[3]
  cleaved PARP induced by 5-FdU in presence of Q-VD-OPh: almost completely blocked

## Nc1nc2[nH]cc(CCc3ccc(C(=O)N[C@@H](CCC(=O)O)C(=O)O)cc3)c2c(=O)[nH]1 [pemetrexed]
HCT116 p53 WT cells
  effect of UDG depletion on cytotoxicity: no significant survival differences
HCT116 p53 KO cells
  effect of UDG depletion on cytotoxicity: sensitized
DLD1 colon cancer cells
  effect of UDG depletion on drug sensitivity: sensitization was also observed
[4]
  effect of UDG depletion on drug sensitivity: sensitization was also observed

## Cc1cn([C@H]2C[C@H](O)[C@@H](CO)O2)c(=O)[nH]c1=O [thymidine]
DLD1 colon cancer cells; 20 μM thymidine 24 h after 5-FdU, UDG depleted cells
  rescue of 5-FdU cell death by thymidine given 24 h after: barely inhibited cell death
DLD1 colon cancer cells; 20 μM thymidine simultaneously with 0 to 200 nM 5-FdU, shSCR or shUDG
  cell killing by 5-FdU with simultaneous thymidine: almost no killing

## COc1cccc2c1C(=O)c1c(O)c3c(c(O)c1C2=O)C[C@@](O)(C(=O)CO)C[C@@H]3O[C@H]1C[C@H](N)[C@H](O)[C@H](C)O1 [doxorubicin]
DLD1 colon cancer cells
  effect of UDG depletion on drug sensitivity: no further sensitivity
[4]
  effect of UDG depletion on drug sensitivity: no further sensitivity

## O=c1[nH]cc(F)c(=O)[nH]1 [5-FU, 5-Fluorouracil]
HCT116 p53 WT cells; HCT116 p53 WT, shUDG vs shSCR
  effect of UDG depletion on cytotoxicity: no significant survival differences
HCT116 p53 KO cells; HCT116 p53 KO, shUDG vs shSCR
  effect of UDG depletion on cytotoxicity: only moderately sensitized

## N.N.[Cl][Pt][Cl] [cisplatin, cis-diamminedichloroplatinum II]
DLD1 colon cancer cells
  effect of UDG depletion on drug sensitivity: no further sensitivity
[4]
  effect of UDG depletion on drug sensitivity: no further sensitivity
